{"source": "patent EP2265599B1", "about": "“CRYSTAL FORM OF PHENYLAMINOPYRIMIDINE DERIVATIVE” (Natco Pharma Limited, priority 2008, dated 2009)", "key": {"[1]": {"tested_on": "K562 cells", "assay": "Spleenic enlargement and Crk immunocytochemistry of spleen in nude mice implanted with K562 cells", "assay_type": "in vivo", "details": "ip injections", "experimental": "Spleen and any secondary tumors were harvested, fixed in formaldehyde and paraffin embedded as per standard protocols. Paraffin section were obtained and processed for immunocytochemistry. The rehydrated sections were treated with 0.3% H2O2 to inactivate any native peroxidases prior to immuno-probing. The sections were blocked with filter sterilized (0.22µm) 1% BSA-PBS at room temperature for 1h. Following blocking, the sections were immuno-probed with a human specific anti-Crk monoclonal primary antibody raised in rabbit against a synthetic peptide corresponding to residues in the SH2 domain, near the N-term of human CrkL protein (Abcam, Cambridge, MA, USA) in 1%BSA-PBS overnight. Secondary antibody (anti-rabbit) conjugated to HRP was used to detect the presence of primary antibody. The sections were briefly rinsed three times in PBS solution after immuno-probing with secondary antibody, and DAB HRP substrate was added per manufacture's instructions (Sigma St Louis MO USA). […] For negative controls primary antibody were eliminated. Leukemic mice spleen served as positive controls.\nMice were sacrificed after a decrease in LGI was observed and spleen harvested. […] Control mice also developed random subcutaneous tumors showing Crk expression, indicative of the presence of K562 cells."}, "[2]": {"tested_on": "U87", "assay": "Matrigel invasion assay (modified Boyden chamber), U87", "assay_type": "cell-based", "details": "cells treated 48 h", "experimental": "The in vitro invasiveness of 4910, 5310 and U87 glioma cells and MDAMB231 and ZR71 breast cancer cells in the presence of specified concentrations of compounds were assessed using a modified Boyden chamber assay. Cells were treated with these compounds for 48 h. 1x10^6 cells were suspended in 600µl of serum-free medium supplemented with 0.2% BSA and placed in the upper compartment of the transwell chambers (Coming Costar Fischer Scientific Cat #07-200-158, Pittsburgh PA) coated with Matrigel (0.7 mg/ml). The lower compartment of the chamber was filled with 200 µl of serum medium and the cells were allowed to migrate for 24 h. After incubation, the cells were fixed and stained with Hema-3 and quantified as previously described (Mohanam et al. 1993). The migrated cells were imaged microscopically to determine the reduction in invasiveness induced by the compounds of this invention.\nThe in vitro invasiveness of 4910, 5310 and U87 glioma cells and MDAMB231 and ZR71 breast cancer cells in the presence of specified concentrations of compounds were assessed using a modified Boyden chamber assay. Cells were treated with these compounds for 48 h."}, "[3]": {"tested_on": "ZR-71 cells", "assay": "In vitro angiogenic assay (conditioned media on human dermal endothelial cells), ZR-71", "assay_type": "cell-based", "experimental": "The in vitro angiogenesis of 4910, 5310 and U87 glioma cells and MDAMB231 and ZR71 breast cancer cells in the presence of specified concentrations of compounds were determined as follows, cells (2x10^4/well) were seeded in 8-well chamber slides and were treated with various concentrations of test compounds. After a 24 h incubation period, the conditioned media was removed and added to a 4x 10^4 human dermal endothelial cell (monolayer in 8-well chamber slides) and the human dermal endothelial cells were allowed to grow for 72 h. Cells were then fixed in 3.7% formaldehyde and stained with H&E and photographed."}, "[4]": {"tested_on": "4910, 5310 and U87 glioma cells and MDAMB231 and ZR71 breast cancer cells", "assay": "Western blot analysis for pAKT and pERK (cell line not specified)", "assay_type": "cell-based", "details": "with and without radiation", "experimental": "Western blot analysis of 4910, 5310 and U87 glioma cells and MDAMB231 and ZR71 breast cancer cells in the presence of specified concentrations of compounds were assessed as per standard protocols. Cells were treated with AN019, AN024 or Temozolomide at the specified concentrations. 24h after treatment, cells were collected and cell lysates extracted. Equal quantities of proteins were fractionated by SDS-PAGE. The fractionated proteins were blotted on to nylon membranes and immunoprobed for AKT, ERK and Pi3k. Breast cancer cell protein isolates were additionally immunoprobed for EGFR, ErbB1, ErbB2 and ErbB3."}, "[5]": {"tested_on": "4910 human glioma xenograft cells", "assay": "Glioma radiation study, intracranially implanted 4910 cells", "assay_type": "in vivo, Nude mice", "experimental": "Nude mice were intracranially implanted with 4910 human glioma xenograft cells (1x10^6 cells). Ten days after implantation mice were treated with AN019, AN024 or temozolomide with or without radiation (5Gy/week). The experiment was terminated at day 40 post implantation."}, "[6]": {"tested_on": "K562 cells", "assay": "Anti-CML activity in nude mice implanted with K562 cells (leukemia growth index, LGI)", "procedure": "To determine anti-CML activity of compounds of this invention K562 cells were obtained from ATCC and nude mice were implanted with these cells. […] Drug treatment was initiated 15 days post implantation and for 48 days with daily ip injections of 10mg/kg. Blood was drawn from the tail vein every 6th day, percent K562 cells determined and percent leukemia growth index (LGI) calculated.\nNude mice (nu/nu) were implanted with K562 cells (1x10^6) via tail vein. Four mice were used per group and divided into 4 groups. Three groups were implanted with K562 cells and one group was used as normal controls. Group 2 was inoculated with K562 cells and served as untreated positive controls.\nMice were injected via an intraperitoneal route at the above-mentioned dosage. Average weight of nude mice was determined to be 30±3g, and the dosage per mouse was calculated to be 300±30µg/mouse. Three micro liters of the stock solutions was diluted to 100µl with sterile water just prior to ip injections. Ip injections were carried out daily from day 15 post implantation to day 48 with a total of 33 injections.\nLeukemia growth index was determined using the formula LGI (%) = (Vc-Vt)/Vc x 100%. Vc is mean blast cell number (K562) per ml of blood in control animals at a certain time of measurement, and Vt is mean blast cell number per ml of blood in test animals at a certain time of measurement. […]"}}, "note": "“Also recorded” adds a separate entry of the source.", "data": [{"smiles": "Cc1ccc(NC(=O)c2cc(C(F)(F)F)cc(C(F)(F)F)c2)cc1Nc1nccc(-c2cccnc2)n1", "note": "[AN019, (3,5-bis trifluoromethyl)-N-[4-methyl-3-(4-pyridin-3yl-pyrimidin-2ylamino)-phenyl]-benzamide]", "values": [{"measurement": "Crk expression in spleen (immunohistochemistry)", "setting": "[1]; paraffin sections of spleen", "value": "basal levels of Crk expression; also recorded: only basal level expression of Crk expression comparable to negative control"}, {"measurement": "Spleenic enlargement (gross observation)", "setting": "[1]; spleen harvested after decrease in LGI", "value": "did not show any spleenic enlargement"}, {"measurement": "+Radiation % Invasion", "setting": "[2]; U87, with radiation", "value": 18, "unit": "%"}, {"measurement": "-Radiation % Invasion", "setting": "[2]; U87, without radiation", "value": 18, "unit": "%"}, {"measurement": "inhibition of angiogenesis", "setting": "[3]", "value": "complete inhibition of angiogenesis"}, {"measurement": "levels of pERK", "setting": "[4]", "value": "reduced significantly"}, {"measurement": "intracranial tumours (size, appearance)", "setting": "[5]; with radiation (5Gy/week)", "value": "tumor size was significantly reduced"}, {"measurement": "animals cured / no observable intracranial tumor", "setting": "[5]; with radiation (5Gy/week), terminated at day 40", "value": "6 of 10 animals"}, {"measurement": "intracranial tumours (size, appearance)", "setting": "[5]; without radiation", "value": "showed tumours similar to AN024 treated animals"}, {"measurement": "animals cured / complete absence of intracranial tumours", "setting": "[5]; without radiation, treatment from ten days after implantation, terminated at day 40", "value": "6 of 10 animals"}, {"measurement": "physiological, phenotypic or behavioral abnormality", "setting": "[6]; K562 implanted nude mice, ip 10mg/kg", "value": "no abnormal physiological, phenotypic or behavioral abnormality"}, {"measurement": "LGI after initiation of drug treatment (time course)", "setting": "[6]; daily ip injections of 10mg/kg from day 15, blood drawn every 6th day", "value": "steady decline in LGI"}]}]}
